Data on 2 compounds can be found in patent US9474790B2, “Stable, protracted GLP-1/glucagon receptor co-agonists for medical use” (Novo Nordisk A/S, priority 2013, dated 2016).

Molecules are shown by their SMILES. Numbered stars: 1 amine (or outer) side, 2 acyl side, 3 side chain; on linkers, the order of the positions; unused ones are H or OH. Bridge positions count the residues as written; N and C are the ends. Square brackets hold non-standard residues; d marks the D form. Side chains are listed from the residue outwards. Peptide text beside a SMILES is read from it. I, II: the chains in the order shown. * marks the point of attachment. C18 diacid = O=C(O)CCCCCCCCCCCCCCCCC(=O)*; γGlu = O=C(O)[C@H](CCC(=O)[*:2])N[*:1]; Ac4c = NC1(C(=O)O)CCC1; AEEA = NCCOCCOCC(=O)O

Data set [1] in a line: Thioflavin T (ThT) fibrillation assay for physical stability. Type of data set: physicochemical. The following applies: 250 μM in 10 mM HEPES buffer, pH 7.5, 37° C., shaking 960 rpm. Summed up:
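Peptide at 250 μM in 10 mM HEPES pH 7.5 with 1 μM ThT, at 37° C with 960 rpm orbital shaking. Fluorescence (ex 444/em 485 nm) read every 20 min after 10 min pre-incubation; sigmoidal fit gives lag time (t0−2τ) and kapp (1/τ). Recovery is RP-HPLC peptide in the centrifuged, 0.22 μm-filtered supernatant as % of initial.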

Data set [2] is described as follows: Chemical stability assessment by RP-UPLC. Format: physicochemical. Particulars: 333 μM, 8 mM phosphate buffer pH 7.3, 37° C. vs 5° C. Summed up: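 Purity loss = (purity after 14 days at 5° C. minus that at 37° C.) relative to the 5° C. value, purity being main-peak area % by RP-UPLC with UV at 215 nm. Samples were 333 μM in 8 mM phosphate, pH 7.3; gradient adjusted for outlying retention times.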

Take `CC(C)C[C@H](NC(=O)[C@H](CC(=O)O)NC(=O)[C@H](CC(C)C)NC(=O)[C@H](Cc1ccc(O)cc1)NC(=O)[C@H](CCCCN)NC(=O)[C@H](CO)NC(=O)[C@H](CC(C)C)NC(=O)[C@H](CC(=O)O)NC(=O)[C@H](CO)NC(=O)[C@@H](NC(=O)[C@H](Cc1ccccc1)NC(=O)[C@@H](NC(=O)CNC(=O)[C@H](CCC(N)=O)NC(=O)C1(NC(=O)[C@@H](N)Cc2c[nH]cn2)CCC1)[C@@H](C)O)[C@@H](C)O)C(=O)N[C@@H](CCCCN)C(=O)N[C@@H](CCCNC(=N)N)C(=O)N[C@@H](C)C(=O)N[C@@H](CCCNC(=N)N)C(=O)N[C@@H](CCC(=O)O)C(=O)N[C@@H](Cc1ccccc1)C(=O)N[C@H](C(=O)N[C@@H](CCC(N)=O)C(=O)N[C@@H](Cc1c[nH]c2ccccc12)C(=O)N[C@@H](CC(C)C)C(=O)N[C@@H](CC(C)C)C(=O)N[C@@H](CCCCNC(=O)CNC(=O)[C@H](CO)NC(=O)[C@H](CCC(=O)O)NC(=O)CNC(=O)[C@H](CO)NC(=O)CC[C@H](NC(=O)CC[C@H](NC(=O)CCCCCCCCCCCCCCCCC(=O)O)C(=O)O)C(=O)O)C(=O)N[C@H](C(N)=O)[C@@H](C)O)C(C)C` [Example 48] (I: H-H[Ac4c]QGTFTSDLSKYLDLKRAREFVQWLLKT-NH2 / II: {C18 diacid-γGlu-γGlu}-SGESG; amide I:28-II:C; N-terminus assumed): in data set [1], the THT assay Lag time (Ex. 76) came to 45 h. In data set [2], the “Purity loss; 14 days at 37° C.” value amounted to 2%.
For the compound `CC(C)C[C@H](NC(=O)[C@H](CC(=O)O)NC(=O)[C@H](CC(C)C)NC(=O)[C@H](Cc1ccc(O)cc1)NC(=O)[C@H](CCCCN)NC(=O)[C@H](CO)NC(=O)[C@H](CC(C)C)NC(=O)[C@H](CC(=O)O)NC(=O)[C@H](CO)NC(=O)[C@@H](NC(=O)[C@H](Cc1ccccc1)NC(=O)[C@@H](NC(=O)CNC(=O)[C@H](CCC(N)=O)NC(=O)C1(NC(=O)[C@@H](N)Cc2c[nH]cn2)CCC1)[C@@H](C)O)[C@@H](C)O)C(=O)N[C@@H](CCCNC(=N)N)C(=O)N[C@@H](CCCNC(=N)N)C(=O)N[C@@H](C)C(=O)N[C@@H](CCCNC(=N)N)C(=O)N[C@@H](CCC(=O)O)C(=O)N[C@@H](Cc1ccccc1)C(=O)N[C@H](C(=O)N[C@@H](CCC(N)=O)C(=O)N[C@@H](Cc1c[nH]c2ccccc12)C(=O)N[C@@H](CC(C)C)C(=O)N[C@@H](CC(C)C)C(=O)N[C@@H](CCCCNC(=O)CC[C@H](NC(=O)CC[C@H](NC(=O)COCCOCCNC(=O)COCCOCCNC(=O)CC[C@H](NC(=O)CC[C@H](NC(=O)CCCCCCCCCCCCCCCCC(=O)O)C(=O)O)C(=O)O)C(=O)O)C(=O)O)C(=O)N[C@H](C(N)=O)[C@@H](C)O)C(C)C` [Example 49, N^ε28-[(4S)-4-carboxy-4-[[(4S)-4-carboxy-4-[[2-[2-[2-[[2-[2-[2-[[(4S)-4-carboxy-4-[[(4S)-4-carboxy-4-(17-carboxyheptadecanoylamino)butanoyl]amino]butanoyl]amino]ethoxy]ethoxy]acetyl]amino]ethoxy]ethoxy]acetyl]amino]butanoyl]amino]butanoyl]-[Acb2,Leu10,Leu16,Arg20,Glu21,Leu27,Lys28]-Glucagon amide] (H-H[Ac4c]QGTFTSDLSKYLDLRRAREFVQWLLK([γGlu-γGlu-AEEA-AEEA-γGlu-γGlu-C18 diacid])T-NH2; N-terminus assumed), the THT assay Lag time (Ex. 76) in data set [1] was found to be 45 h. For the same compound, the “Purity loss; 14 days at 37° C.” value in data set [2] is 2%.
